Measurements: ChEMBL document CHEMBL1156001, “Synthesis and in vitro DMPK profiling of a 1,2-dioxolane-based library with activity against Plasmodium falciparum” (Bioorg Med Chem Lett, 2009)

Key:
[1] = Octanol-PBS partition coefficient, log D at […] at pH 7.4; assay type: physicochemical
[2] = Membrane permeability at […] at pH 6.5 to 7.4 after 4 hrs by PAMPA; assay type: ADME; conditions: read-out: permeability
[3] = Intrinsic clearance in rat liver microsomes after 10 to 45 mins by LCMS/MS analysis; assay type: ADME, Microsome
[4] = Intrinsic clearance in human liver microsomes after 10 to 45 mins by LCMS/MS analysis; assay type: ADME, Microsome

Q: Which logD [1] does the source give for CC1(CC(=O)NCc2cccc(Br)c2)CC2(CCCCC2)OO1 (stereo not given) here?
A: 3.3

Q: For CC1(CC(=O)NCc2ccc3c(c2)OCC3)CC2(CCCCC2)OO1 (stereo not given), which logD [1] is on record?
A: 2.8

Q: For CC1(CC(=O)NCc2ccc(C(=O)O)cc2)CC2(CCCCC2)OO1 (stereo not given), which logD [1] is on record?
A: 0.3

Q: Which logD [1] does the source give for CC1(CC(=O)NCc2ccccc2Sc2ccccc2CO)CC2(CCCCC2)OO1 (stereo not given) here?
A: 4.3

Q: And the Papp at 4 h [2]?
A: 77 ×10⁻⁶ cm/s

Q: Which logD [1] does the source give for CC1(CC(=O)NCc2ccc(Oc3ccc(F)cc3)cc2)CC2(CCCCC2)OO1 (stereo not given) here?
A: > 3.5

Q: With CC1(CC(=O)NCc2cccc(I)c2)CC2(CCCCC2)OO1 (stereo not given) as the compound, how does the logD [1] read?
A: 3.5

Q: Which logD [1] does the source give for CC1(CC(=O)NCc2ccc(Cl)cc2Cl)CC2(CCCCC2)OO1 (stereo not given) here?
A: > 3.5

Q: With CC1(CC(=O)NCc2ccc(N3CCOCC3)cc2)CC2(CCCCC2)OO1 (stereo not given) as the compound, how does the logD [1] read?
A: 2.7

Q: Which logD [1] does the source give for CC1(CC(=O)NCc2ccc(-c3ccc(F)cc3)cc2)CC2(CCCCC2)OO1 (stereo not given) here?
A: 4.8

Q: For CC1(CC(=O)NCc2cccc(-c3ccccc3)c2)CC2(CCCCC2)OO1 (stereo not given), which logD [1] is on record?
A: 3.8

Q: For CSc1ccc(CNC(=O)CC2(C)CC3(CCCCC3)OO2)cc1 (stereo not given), which logD [1] is on record?
A: 3.7

Q: And the Papp at 4 h [2]?
A: 97 ×10⁻⁶ cm/s

Q: With CC1(CC(=O)NCc2ccc(Br)cc2F)CC2(CCCCC2)OO1 (stereo not given) as the compound, how does the logD [1] read?
A: 4.1

Q: What does the source list for COc1cc(CNC(=O)CC2(C)CC3(CCCCC3)OO2)cc(OC)c1OC (stereo not given)?
A: logD [1]: 2.3; Papp at 4 h [2]: 54 ×10⁻⁶ cm/s

Q: For COc1cc(CNC(=O)CC2(C)CC3(CCCCC3)OO2)cc(OC)c1 (stereo not given), which logD [1] is on record?
A: 3.3

Q: What about the Papp at 4 h [2] of the same compound?
A: 55 ×10⁻⁶ cm/s

Q: Which logD [1] does the source give for CC1(CC(=O)NCc2cccc(C(F)(F)F)c2)CC2(CCCCC2)OO1 (stereo not given) here?
A: 4

Q: For CC1(CC(=O)NCc2ccc3c(c2)OCC=CO3)CC2(CCCCC2)OO1 (stereo not given), which logD [1] is on record?
A: 3.1

Q: And the Papp at 4 h [2]?
A: 55 ×10⁻⁶ cm/s

Q: Which logD [1] does the source give for CC1(CC(=O)NCc2ccc(Oc3cc(C(F)(F)F)cc(C(F)(F)F)c3)cc2)CC2(CCCCC2)OO1 (stereo not given) here?
A: 3.2

Q: For CC1(CC(=O)NCc2ccc(-n3cccc3)cc2)CC2(CCCCC2)OO1 (stereo not given), which logD [1] is on record?
A: 4.3

Q: What about the Papp at 4 h [2] of the same compound?
A: 70 ×10⁻⁶ cm/s

Q: Which logD [1] does the source give for CC1(CC(=O)NCc2ccc(-c3cccs3)cc2)CC2(CCCCC2)OO1 (stereo not given) here?
A: 3.7

Q: For CC(C)(C)OC(=O)Nc1cccc(CCNC(=O)CC2(C)CC3(CCCCC3)OO2)c1 (stereo not given), which logD [1] is on record?
A: 3

Q: Which logD [1] does the source give for CC1(CC(=O)NCc2cccc(Oc3ccc(Cl)cc3)c2)CC2(CCCCC2)OO1 (stereo not given) here?
A: 3.2

Q: With CC1(CC(=O)NCc2ccc3c(c2)OCCO3)CC2(CCCCC2)OO1 (stereo not given) as the compound, how does the logD [1] read?
A: 2.7

Q: What about the Papp at 4 h [2] of the same compound?
A: 56 ×10⁻⁶ cm/s

Q: What does the source list for CCOc1ccccc1CNC(=O)CC1(C)CC2(CCCCC2)OO1 (stereo not given)?
A: logD [1]: 3.1; Papp at 4 h [2]: 74 ×10⁻⁶ cm/s

Q: What does the source list for COC(=O)c1ccc(CNC(=O)CC2(C)CC3(CCCCC3)OO2)cc1 (stereo not given)?
A: logD [1]: 3.4; Papp at 4 h [2]: 57 ×10⁻⁶ cm/s

Q: With CC1(CC(=O)NCc2ccc(-c3cc(Cl)cc(Cl)c3)cc2)CC2(CCCCC2)OO1 (stereo not given) as the compound, how does the logD [1] read?
A: > 3.5

Q: With CC1(CC(=O)NCc2ccc([N+](=O)[O-])cc2)CC2(CCCCC2)OO1 (stereo not given) as the compound, how does the logD [1] read?
A: 3.4

Q: What about the Papp at 4 h [2] of the same compound?
A: 49 ×10⁻⁶ cm/s

Q: Which logD [1] does the source give for CC1(CC(=O)NCc2ccccn2)CC2(CCCCC2)OO1 (stereo not given) here?
A: 2.3

Q: What about the Papp at 4 h [2] of the same compound?
A: 33 ×10⁻⁶ cm/s

Q: With CN(C)c1ccc(CNC(=O)CC2(C)CC3(CCCCC3)OO2)cc1 (stereo not given) as the compound, how does the logD [1] read?
A: 3.1

Q: And the Papp at 4 h [2]?
A: 90 ×10⁻⁶ cm/s

Q: Which logD [1] does the source give for CC1(CC(=O)NCc2ccc(S(N)(=O)=O)cc2)CC2(CCCCC2)OO1 (stereo not given) here?
A: 1.4

Q: Which logD [1] does the source give for CC1(CC(=O)NCc2ccccc2OC(F)(F)F)CC2(CCCCC2)OO1 (stereo not given) here?
A: 3.3

Q: For CC1(CC(=O)NCc2ccccc2N2CCCCC2)CC2(CCCCC2)OO1 (stereo not given), which logD [1] is on record?
A: > 3.5

Q: What about the Papp at 4 h [2] of the same compound?
A: 62 ×10⁻⁶ cm/s

Q: Which logD [1] does the source give for CC1(CC(=O)NCc2cccc(Cl)c2Cl)CC2(CCCCC2)OO1 (stereo not given) here?
A: 3.4

Q: Which logD [1] does the source give for COc1cccc(CNC(=O)CC2(C)CC3(CCCCC3)OO2)c1 (stereo not given) here?
A: 3.1

Q: What about the Papp at 4 h [2] of the same compound?
A: 65 ×10⁻⁶ cm/s

Q: Which results are given for CC1(CC(=O)NCCNc2ccnc3cc(Cl)ccc23)CC2(CCCCC2)OO1 (stereo not given)?
A: logD [1]: 3.4; Papp at 4 h [2]: 66 ×10⁻⁶ cm/s; microsomal CLint [3]: > 119 µL/min/mg; microsomal CLint [4]: > 72 µL/min/mg

Q: With CC1(CC(=O)NCc2ccc(C(C)(C)C)cc2)CC2(CCCCC2)OO1 (stereo not given) as the compound, how does the logD [1] read?
A: 3.5

Q: For CC1(CC(=O)NCc2ccc(OC(F)F)cc2)CC2(CCCCC2)OO1 (stereo not given), which logD [1] is on record?
A: 3.1

Q: With CC1(CC(=O)NCc2ccc(OC(F)(F)F)cc2)CC2(CCCCC2)OO1 (stereo not given) as the compound, how does the logD [1] read?
A: 3.2

Q: For CC1(CC(=O)NCc2ccccc2N)CC2(CCCCC2)OO1 (stereo not given), which logD [1] is on record?
A: 2.5

Q: What about the Papp at 4 h [2] of the same compound?
A: 37 ×10⁻⁶ cm/s

Q: For CC1(CC(=O)NCc2ccncc2)CC2(CCCCC2)OO1 (stereo not given), which logD [1] is on record?
A: 2.1

Q: What about the Papp at 4 h [2] of the same compound?
A: 18 ×10⁻⁶ cm/s

Q: Which logD [1] does the source give for Cc1cc(Cl)ccc1CNC(=O)CC1(C)CC2(CCCCC2)OO1 (stereo not given) here?
A: 4.2

Q: With CC1(CC(=O)NCc2cccc(Cl)c2)CC2(CCCCC2)OO1 (stereo not given) as the compound, how does the logD [1] read?
A: 3.7
